Here are results for 15 compounds from PubChem BioAssay (NCI).

Values joined by “and” are separate entries in the source; they are usually repeats but may differ in a detail not shown here. Identical values can stand only once.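 Tested at 5 concentrations; 48 h exposure; 96-well plates; endpoints linearly interpolated, else capped at highest concentration. Definition used: TGI = concentration required for complete inhibition of growth.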

One assay concerns SK-MEL-2 melanoma. Put plainly: growth of human tumour cells (NCI), 48 h.
For `O=C1CCCCC/C1=C\c1cccc(Cl)c1`, the TGI is above 100 µM.
The same measure, in the same setting: next, `COC(=O)C1(C(=O)OC)Cc2ccc(OC)cc2C2=C1C(=O)c1ccccc1C2=O`: 15.7 µM; `O=C1C(Cl)C2(CC(/C=C/c3ccccc3Cl)=NN2c2cccc(S(=O)(=O)O)c2)N1c1nc2ccccc2s1` (stereo unspecified): above 100 µM.
On the same count and under the same terms, next, `Nc1ncnn2c(C3OC(CO)C(O)C3O)ccc12` (stereo unspecified): 0.362 µM.
`COCCOC(=O)c1c(C)n([O-])c2cc(Cl)c(Cl)cc2[n+]1=O`: the TGI is 72.7 µM.
On the same count and under the same terms, for `Cn1c(=O)c(Br)c(C=O)n(CCO[N+](=O)[O-])c1=O` the value was 15.8 µM; for `COc1ccc(-c2c(C#N)c(N)n(C3OCC(OC(C)=O)C(OC(C)=O)C3OC(C)=O)c(=S)c2C#N)cc1` (stereo unspecified), above 100 µM.

In another assay the test system is TK-10 renal. Put plainly: growth of human tumour cells (NCI), 48 h.
`CCCCCCCCCCCCCCCCCCNc1ccn(C2OC(COP(=O)(O)OCC3OC(n4cc(F)c(=O)[nH]c4=O)CC3O)C(O)C2O)c(=O)n1` (stereo unspecified) yielded a TGI above 55.5 µM.
Still for that read-out and setting: for `CCOC(=O)/C(C#N)=C\c1ccc(N(CCC(=O)O)CCC(=O)O)c(I)c1` the value was above 10 µM; for `O=C(NC1=NCC(CN2CCN(c3ccccc3)CC2)O1)Nc1ccccc1` (stereo unspecified), above 100 µM; for `Cc1cc2ccccc2n2c1nc1ccccc12`, above 100 µM.
Still for that read-out and setting: for `CC(=O)C(=C(c1ccccc1)c1ccccc1)c1ccccc1` the value was above 100 µM; for `Cc1ccc2c(c1)[nH]c(=S)n2/C=C1\C(=O)Oc2ccccc2C1=O`, above 100 µM; for `C=CCNC(=O)NC(=O)CSC1=NNC2(C(=O)N1)c1ccccc1-c1ccccc12`, above 10 µM.
Same read-out and setting: next, `COC(=O)C1(C(=O)OC)Cc2ccc(OC)cc2C2=C1C(=O)c1ccccc1C2=O`: 33.4 µM; `O=C1C(Cl)C2(CC(/C=C/c3ccccc3Cl)=NN2c2cccc(S(=O)(=O)O)c2)N1c1nc2ccccc2s1` (stereo unspecified): 84.6 µM; `Nc1ncnn2c(C3OC(CO)C(O)C3O)ccc12` (stereo unspecified): 0.682 µM.
Turning to `COCCOC(=O)c1c(C)n([O-])c2cc(Cl)c(Cl)cc2[n+]1=O`, the TGI was determined as 98.3 µM.
The same measure, in the same setting: for `O=C(CC(=O)N(C(=O)/C=C\c1ccccc1)c1ccc(Cl)cc1)N1N=C(c2ccccc2)C(N=Nc2cccc([N+](=O)[O-])c2)C1=O` (stereo unspecified) the value was 38.9 µM; for `Cn1c(=O)c(Br)c(C=O)n(CCO[N+](=O)[O-])c1=O`, 15.7 µM.

The subject of the next assay is MOLT-4 leukemia. Briefly: growth of human tumour cells (NCI), 48 h.
As for `CCCCCCCCCCCCCCCCCCNc1ccn(C2OC(COP(=O)(O)OCC3OC(n4cc(F)c(=O)[nH]c4=O)CC3O)C(O)C2O)c(=O)n1` (stereo unspecified), the TGI amounted to 25.2 µM.
The same measure, in the same setting: for `CCOC(=O)/C(C#N)=C\c1ccc(N(CCC(=O)O)CCC(=O)O)c(I)c1` the value was above 10 µM.
On the same count and under the same terms, next, `O=C(NC1=NCC(CN2CCN(c3ccccc3)CC2)O1)Nc1ccccc1` (stereo unspecified): above 100 µM.
The same measure, in the same setting: for `Cc1cc2ccccc2n2c1nc1ccccc12` the value was above 100 µM; for `CC(=O)C(=C(c1ccccc1)c1ccccc1)c1ccccc1`, above 100 µM.
Take `Cc1ccc2c(c1)[nH]c(=S)n2/C=C1\C(=O)Oc2ccccc2C1=O`: the TGI was above 100 µM.
As for `C=CCNC(=O)NC(=O)CSC1=NNC2(C(=O)N1)c1ccccc1-c1ccccc12`, the TGI was above 10 µM.
Same read-out and setting: next, `O=C1CCCCC/C1=C\c1cccc(Cl)c1`: above 100 µM; `COC(=O)C1(C(=O)OC)Cc2ccc(OC)cc2C2=C1C(=O)c1ccccc1C2=O`: 3.97 µM; `O=C1C(Cl)C2(CC(/C=C/c3ccccc3Cl)=NN2c2cccc(S(=O)(=O)O)c2)N1c1nc2ccccc2s1` (stereo unspecified): above 100 µM.
Still for that read-out and setting: for `Nc1ncnn2c(C3OC(CO)C(O)C3O)ccc12` (stereo unspecified) the value was 0.455 µM; for `COCCOC(=O)c1c(C)n([O-])c2cc(Cl)c(Cl)cc2[n+]1=O`, 62.5 µM; for `O=C(CC(=O)N(C(=O)/C=C\c1ccccc1)c1ccc(Cl)cc1)N1N=C(c2ccccc2)C(N=Nc2cccc([N+](=O)[O-])c2)C1=O` (stereo unspecified), 24.7 µM.
Still for that read-out and setting: for `Cn1c(=O)c(Br)c(C=O)n(CCO[N+](=O)[O-])c1=O` the value was 5.8 µM; for `COc1ccc(-c2c(C#N)c(N)n(C3OCC(OC(C)=O)C(OC(C)=O)C3OC(C)=O)c(=S)c2C#N)cc1` (stereo unspecified), 51.1 µM and 48 µM.

The subject of another assay is OVCAR-4 ovarian. Put plainly: growth of human tumour cells (NCI), 48 h.
`CCCCCCCCCCCCCCCCCCNc1ccn(C2OC(COP(=O)(O)OCC3OC(n4cc(F)c(=O)[nH]c4=O)CC3O)C(O)C2O)c(=O)n1` (stereo unspecified): the TGI was above 100 µM.
On the same count and under the same terms, for `CCOC(=O)/C(C#N)=C\c1ccc(N(CCC(=O)O)CCC(=O)O)c(I)c1` the value was above 10 µM; for `O=C(NC1=NCC(CN2CCN(c3ccccc3)CC2)O1)Nc1ccccc1` (stereo unspecified), above 100 µM; for `CC(=O)C(=C(c1ccccc1)c1ccccc1)c1ccccc1`, above 100 µM.
As to `Cc1ccc2c(c1)[nH]c(=S)n2/C=C1\C(=O)Oc2ccccc2C1=O`, the TGI was above 100 µM.
The same measure, in the same setting: next, `C=CCNC(=O)NC(=O)CSC1=NNC2(C(=O)N1)c1ccccc1-c1ccccc12`: above 10 µM; `O=C1CCCCC/C1=C\c1cccc(Cl)c1`: 83.3 µM.
Same read-out and setting: next, `COC(=O)C1(C(=O)OC)Cc2ccc(OC)cc2C2=C1C(=O)c1ccccc1C2=O`: 3.43 µM; `O=C1C(Cl)C2(CC(/C=C/c3ccccc3Cl)=NN2c2cccc(S(=O)(=O)O)c2)N1c1nc2ccccc2s1` (stereo unspecified): above 100 µM.
Still for that read-out and setting: next, `Nc1ncnn2c(C3OC(CO)C(O)C3O)ccc12` (stereo unspecified): 0.582 µM; `COCCOC(=O)c1c(C)n([O-])c2cc(Cl)c(Cl)cc2[n+]1=O`: 30.8 µM; `COc1ccc(-c2c(C#N)c(N)n(C3OCC(OC(C)=O)C(OC(C)=O)C3OC(C)=O)c(=S)c2C#N)cc1` (stereo unspecified): above 100 µM.

For another assay, the system named is NCI-H23 lung. Put plainly: growth of human tumour cells (NCI), 48 h.
For `CCCCCCCCCCCCCCCCCCNc1ccn(C2OC(COP(=O)(O)OCC3OC(n4cc(F)c(=O)[nH]c4=O)CC3O)C(O)C2O)c(=O)n1` (stereo unspecified), the TGI was determined as 17.9 µM.
The same measure, in the same setting: for `CCOC(=O)/C(C#N)=C\c1ccc(N(CCC(=O)O)CCC(=O)O)c(I)c1` the value was above 10 µM; for `O=C(NC1=NCC(CN2CCN(c3ccccc3)CC2)O1)Nc1ccccc1` (stereo unspecified), above 100 µM.
Still for that read-out and setting: next, `Cc1cc2ccccc2n2c1nc1ccccc12`: above 100 µM.
The same measure, in the same setting: next, `CC(=O)C(=C(c1ccccc1)c1ccccc1)c1ccccc1`: above 100 µM; `Cc1ccc2c(c1)[nH]c(=S)n2/C=C1\C(=O)Oc2ccccc2C1=O`: above 100 µM.
Regarding `C=CCNC(=O)NC(=O)CSC1=NNC2(C(=O)N1)c1ccccc1-c1ccccc12`, the TGI was above 10 µM.
The same measure, in the same setting: next, `O=C1CCCCC/C1=C\c1cccc(Cl)c1`: above 100 µM; `COC(=O)C1(C(=O)OC)Cc2ccc(OC)cc2C2=C1C(=O)c1ccccc1C2=O`: 21.9 µM.
Still for that read-out and setting: next, `O=C1C(Cl)C2(CC(/C=C/c3ccccc3Cl)=NN2c2cccc(S(=O)(=O)O)c2)N1c1nc2ccccc2s1` (stereo unspecified): above 100 µM; `Nc1ncnn2c(C3OC(CO)C(O)C3O)ccc12` (stereo unspecified): 0.474 µM.
Same read-out and setting: next, `COCCOC(=O)c1c(C)n([O-])c2cc(Cl)c(Cl)cc2[n+]1=O`: 79.2 µM.
`O=C(CC(=O)N(C(=O)/C=C\c1ccccc1)c1ccc(Cl)cc1)N1N=C(c2ccccc2)C(N=Nc2cccc([N+](=O)[O-])c2)C1=O` (stereo unspecified): the TGI is 40.2 µM.
Same read-out and setting: next, `Cn1c(=O)c(Br)c(C=O)n(CCO[N+](=O)[O-])c1=O`: 19.4 µM; `COc1ccc(-c2c(C#N)c(N)n(C3OCC(OC(C)=O)C(OC(C)=O)C3OC(C)=O)c(=S)c2C#N)cc1` (stereo unspecified): above 100 µM.

For the next assay, the system named is MDA-MB-435. Briefly: growth of human tumour cells (NCI), 48 h.
`CCCCCCCCCCCCCCCCCCNc1ccn(C2OC(COP(=O)(O)OCC3OC(n4cc(F)c(=O)[nH]c4=O)CC3O)C(O)C2O)c(=O)n1` (stereo unspecified): the TGI is above 100 µM.
On the same count and under the same terms, next, `CCOC(=O)/C(C#N)=C\c1ccc(N(CCC(=O)O)CCC(=O)O)c(I)c1`: above 10 µM.
For the compound `O=C(NC1=NCC(CN2CCN(c3ccccc3)CC2)O1)Nc1ccccc1` (stereo unspecified), the TGI was above 100 µM.
The same measure, in the same setting: for `Cc1cc2ccccc2n2c1nc1ccccc12` the value was above 100 µM.
